Data set [1] is described as follows: Cytotoxicity against HUVEC cells assessed as cell viability incubated for 24 hrs by MTT assay. The format is toxicity, cell-based. The settings on record: human, read-out: Activity.
A further data set deals with HUVEC. The data set is described as follows: Anti-angiogenesis activity against HUVEC cells assessed as inhibition of tube formation at 2.5 to 20 uM measured after 3 hrs by fluorescence microscopic analysis. The format is functional, cell-based. The settings on record: Homo sapiens, dose 2.5-20 µM, DDE = dose-dependent effect.

Molecules are shown by their SMILES.

For the molecule `CCCC[C@@H](O)[C@H](O)/C=C/C=C/[C@@H]1CC[C@@H](O)[C@H](C)N1`, the viability at 24 h in data set [1] is no less than 90%. Moreover, the Activity entry with HUVEC was “Dde”.

For the origin of these results see ChEMBL document CHEMBL5143592, “Angiogenesis-Inhibitory Piperidine Alkaloids from the Leaves of Microcos paniculata” (J Nat Prod, 2022).
